Reference: article PMC3234597, “Two Panels of Steroid Receptor Luciferase Reporter Cell Lines for Compound Profiling” (Combinatorial Chemistry & High Throughput Screening, 2011)
Entries after “also recorded” stand apart in the source; their conditions may differ. Read-outs that look alike come from different tables or passages of the source.

Assays:
Type in all cases: cell-based
[1] = molecular target: T1, human ERβ (full-length) (Homo sapiens, UniProt Q92731); assay: U2OS-ERβ/3xERE luciferase reporter cell line (full-length receptor); conditions: for EC50: read-out: Log EC50 (converted)
T1 construct: expression vectors encoding full-length steroid receptors: pcDNA3-hERα and pcDNA3-ERβ; expressed in transfected cells; host or cells: U2OS

[2] = molecular target: T2, ERβ-LBD fused to Gal4-DBD (Homo sapiens, UniProt Q92731); assay: U2OS-ERβ-LBD/9xGal4UAS luciferase reporter cell line; conditions: for EC50: read-out: Log EC50 (converted)
T2 construct: region comprising ERβ-LBD and a piece of the hinge region; expressed in transfected cells; host or cells: U2OS

[3] = molecular target: T3, human GR (full-length) (Homo sapiens, UniProt P04150); assay: U2OS-GR/MMTV luciferase reporter cell line (full-length receptor); conditions: for Log EC50: agonist mode, 20 h, log10 of molar EC50, mean ± SEM; for Log EC50 / Log IC50: GR/MMTV; for Log IC50: antagonist mode, in the presence of 5 nM dexamethasone, log10 of molar IC50, mean ± SEM
T3 construct: expression vectors encoding full-length steroid receptors: pcDNA3-hAR and pcDNA3-hGR; host or cells: U2OS
T3 sequence (P04150 1-777): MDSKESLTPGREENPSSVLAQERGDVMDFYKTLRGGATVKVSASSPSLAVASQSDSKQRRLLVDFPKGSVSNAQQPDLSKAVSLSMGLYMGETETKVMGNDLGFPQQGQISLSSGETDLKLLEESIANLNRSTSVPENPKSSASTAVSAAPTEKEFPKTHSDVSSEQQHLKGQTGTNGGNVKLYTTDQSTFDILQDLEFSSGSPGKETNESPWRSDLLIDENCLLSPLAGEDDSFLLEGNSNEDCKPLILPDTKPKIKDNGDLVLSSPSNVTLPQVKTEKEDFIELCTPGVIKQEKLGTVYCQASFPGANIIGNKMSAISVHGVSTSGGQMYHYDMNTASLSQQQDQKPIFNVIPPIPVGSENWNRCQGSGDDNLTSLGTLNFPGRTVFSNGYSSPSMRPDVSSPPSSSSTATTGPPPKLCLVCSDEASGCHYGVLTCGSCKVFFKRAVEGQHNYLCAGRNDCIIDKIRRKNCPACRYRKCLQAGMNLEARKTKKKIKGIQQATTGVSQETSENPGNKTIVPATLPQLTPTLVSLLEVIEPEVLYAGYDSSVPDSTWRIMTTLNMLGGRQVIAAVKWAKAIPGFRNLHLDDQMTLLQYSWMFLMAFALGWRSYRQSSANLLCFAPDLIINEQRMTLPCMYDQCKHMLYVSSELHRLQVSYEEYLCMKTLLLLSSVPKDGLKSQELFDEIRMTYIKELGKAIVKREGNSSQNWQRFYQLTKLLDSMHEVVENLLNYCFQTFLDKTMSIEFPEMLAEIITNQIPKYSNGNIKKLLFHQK

[4] = molecular target: T4, MR-LBD fused to Gal4-DBD (Homo sapiens, UniProt P08235); assay: U2OS-MR-LBD/9xGal4UAS luciferase reporter cell line; conditions: for Log EC50: agonist mode, 20 h, log10 of molar EC50, mean ± SEM; for Log EC50 / Log IC50: MR-LBD/9xGal4UAS; for Log IC50: antagonist mode, in the presence of 1 nM aldosterone, log10 of molar IC50, mean ± SEM
T4 construct: MR-LBD was cloned by RT-PCR from total RNA isolated from HEK293 cells; expressed in transfected cells; host or cells: U2OS
T4 sequence (P08235 726-964 limits assumed): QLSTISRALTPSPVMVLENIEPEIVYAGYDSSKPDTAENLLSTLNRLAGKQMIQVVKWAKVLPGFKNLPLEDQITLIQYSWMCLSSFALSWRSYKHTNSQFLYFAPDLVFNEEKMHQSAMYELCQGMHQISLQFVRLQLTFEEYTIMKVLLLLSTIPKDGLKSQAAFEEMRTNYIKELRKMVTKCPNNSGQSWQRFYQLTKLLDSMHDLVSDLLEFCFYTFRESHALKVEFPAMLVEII

[5] = molecular target: T5, PR-LBD fused to Gal4-DBD (Homo sapiens, UniProt P06401); assay: U2OS-PR-LBD/9xGal4UAS luciferase reporter cell line; conditions: for Log EC50: agonist mode, 20 h, log10 of molar EC50, mean ± SEM
T5 construct: PR-LBD region was PCR amplified using the following primer combination; host or cells: U2OS
T5 sequence (P06401 679-913 limits assumed): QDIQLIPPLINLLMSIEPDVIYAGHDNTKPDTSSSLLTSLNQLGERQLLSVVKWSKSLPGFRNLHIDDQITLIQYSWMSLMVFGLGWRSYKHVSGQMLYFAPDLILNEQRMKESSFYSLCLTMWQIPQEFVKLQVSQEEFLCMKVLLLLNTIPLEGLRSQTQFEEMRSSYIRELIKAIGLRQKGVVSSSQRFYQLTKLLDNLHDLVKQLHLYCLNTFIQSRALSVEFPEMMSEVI

[6] = molecular target: T6, human ERα (full-length) (Homo sapiens, UniProt P03372, G400V); assay: U2OS-ERα/3xERE luciferase reporter cell line (full-length receptor); conditions: for luciferase activity in ERα reporter cell lines: even at 10 μM concentration
T6 sequence (P03372 1-595 G400V): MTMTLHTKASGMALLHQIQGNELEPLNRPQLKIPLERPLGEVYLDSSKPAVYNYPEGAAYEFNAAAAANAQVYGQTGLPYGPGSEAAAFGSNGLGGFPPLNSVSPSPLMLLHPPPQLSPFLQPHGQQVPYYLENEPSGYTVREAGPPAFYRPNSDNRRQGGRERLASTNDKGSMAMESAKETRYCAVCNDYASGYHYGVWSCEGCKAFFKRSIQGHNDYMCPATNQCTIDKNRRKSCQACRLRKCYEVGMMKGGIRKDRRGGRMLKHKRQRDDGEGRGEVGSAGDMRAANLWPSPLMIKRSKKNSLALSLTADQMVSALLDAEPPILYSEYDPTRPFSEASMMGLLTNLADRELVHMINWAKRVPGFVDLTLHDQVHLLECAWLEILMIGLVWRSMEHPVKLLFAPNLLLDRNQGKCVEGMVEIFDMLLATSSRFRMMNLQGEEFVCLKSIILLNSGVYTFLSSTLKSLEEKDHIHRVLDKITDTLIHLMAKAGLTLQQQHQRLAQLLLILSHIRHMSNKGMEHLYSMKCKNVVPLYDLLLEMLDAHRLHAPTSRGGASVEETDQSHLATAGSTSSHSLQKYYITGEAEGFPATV

[7] = molecular target: T7, ERα^G420C-LBD fused to Gal4-DBD (Homo sapiens, UniProt P03372, G420C); assay: U2OS-ERα^G420C-LBD/9xGal4UAS luciferase reporter cell line
T7 construct: expressed in transfected cells; host or cells: U2OS
T7 sequence (P03372 311-547 G420C limits assumed): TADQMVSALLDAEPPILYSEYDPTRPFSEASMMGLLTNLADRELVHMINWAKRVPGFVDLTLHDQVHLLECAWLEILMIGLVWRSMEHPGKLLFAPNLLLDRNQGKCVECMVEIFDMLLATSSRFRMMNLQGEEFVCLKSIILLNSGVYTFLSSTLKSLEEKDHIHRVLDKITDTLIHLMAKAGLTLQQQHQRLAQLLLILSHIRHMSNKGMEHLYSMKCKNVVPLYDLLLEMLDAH

[8] = antagonist mode, PR-LBD/9xGal4UAS, log10 of molar IC50, mean ± SEM
[9] = antagonist mode, PR-LBD/9xGal4UAS, log10 of molar IC50, mean ± SEM, read-out: Log IC50 (converted)

T1 sequence (Q92731 whole entry): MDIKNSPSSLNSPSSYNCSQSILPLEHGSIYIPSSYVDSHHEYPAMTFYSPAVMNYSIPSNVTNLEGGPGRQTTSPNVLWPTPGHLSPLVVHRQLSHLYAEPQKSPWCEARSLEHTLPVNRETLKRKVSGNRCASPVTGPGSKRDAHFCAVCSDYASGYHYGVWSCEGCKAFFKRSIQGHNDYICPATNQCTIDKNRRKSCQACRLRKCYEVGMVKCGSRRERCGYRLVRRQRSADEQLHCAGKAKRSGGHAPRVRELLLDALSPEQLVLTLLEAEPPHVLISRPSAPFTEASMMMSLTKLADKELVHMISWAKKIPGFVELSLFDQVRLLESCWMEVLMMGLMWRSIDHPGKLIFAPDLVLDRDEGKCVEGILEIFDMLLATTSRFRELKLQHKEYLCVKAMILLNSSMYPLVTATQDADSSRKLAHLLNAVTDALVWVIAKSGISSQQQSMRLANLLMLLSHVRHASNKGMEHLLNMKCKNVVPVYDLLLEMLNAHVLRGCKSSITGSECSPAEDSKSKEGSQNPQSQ
T2 sequence (Q92731 264-498 limits assumed): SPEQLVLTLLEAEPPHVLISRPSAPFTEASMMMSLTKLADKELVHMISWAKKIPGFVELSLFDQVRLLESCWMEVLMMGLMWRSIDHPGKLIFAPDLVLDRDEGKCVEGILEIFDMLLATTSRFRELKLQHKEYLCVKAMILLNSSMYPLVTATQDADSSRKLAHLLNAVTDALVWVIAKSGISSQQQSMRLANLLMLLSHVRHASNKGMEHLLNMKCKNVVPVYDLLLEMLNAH

| SMILES | Log EC50 [4] [M] | Log IC50 [4] [M] | Log EC50 ([5]; PR-LBD/9xGal4UAS) [M] | Log IC50 [5, 8] [M] | EC50 [6] [µM] | EC50 [7] [µM] | EC50 [1] [µM] | EC50 [2] [µM] | EC50 ([3]; read-out: Log EC50 (converted)) [µM] | IC50 [5, 9] [µM] | EC50 ([5]; read-out: Log EC50 (converted)) [µM] | EC50 ([4]; read-out: Log EC50 (converted)) [nM] | further results |
| --- | --- | --- | --- | --- | --- | --- | --- | --- | --- | --- | --- | --- | --- |
| CC[C@@H]1Cc2cc(O)ccc2C2=C1c1ccc(O)cc1C[C@H]2CC (relative stereo) [R.R-THC, (R,R)-cis-diethyltetrahydro-2,8-chrysenediol] | > -5.00 | -5.08 ± 0.13 | > -5.00 | -5.52 ± 0.70 |  |  |  |  |  |  |  |  | Log EC50 ([1]; agonist mode, ERβ/3xERE, 20 h, log10 of molar EC50, mean ± SEM): > -5.00 M; Log IC50 ([1]; antagonist mode, ERβ/3xERE, in the presence of 1 nM E2, log10 of molar IC50, mean ± SEM): -7.30 ± 0.14 M; Log EC50 ([2]; agonist mode, ERβ-LBD/9xGal4UAS, 20 h, log10 of molar EC50, mean ± SEM): > -5.00 M; Log IC50 ([2]; antagonist mode, ERβ-LBD/9xGal4UAS, in the presence of 5 nM E2, log10 of molar IC50, mean ± SEM): -7.39 ± 0.15 M; Log EC50 [3]: > -5.00 M; Log IC50 [3]: > -5.00 M |
| C[C@]12CCC(=O)C=C1CC[C@@H]1[C@@H]2[C@@H](O)C[C@]2(C=O)[C@@H](C(=O)CO)CC[C@@H]12 [Aldosterone, aldosterone] |  |  |  |  | > 10 | > 10 | > 10 | > 10 | 0.209 | 3.72 | 1.12 |  |  |
| C[C@H]1C[C@H]2[C@@H]3CCC4=CC(=O)C=C[C@]4(C)[C@@]3(Cl)[C@@H](O)C[C@]2(C)[C@@]1(O)C(=O)CO [Beclomethasone, beclomethasone] | -7.95 ± 0.10 | -7.64 ± 0.10 | -5.20 ± 0.05 | > -5.00 |  |  |  |  |  |  |  |  | luciferase activity in ERα reporter cell lines [6]: did not find any sign of luciferase activity; Log EC50 ([6]; agonist mode, ERα/3xERE, 20 h, value is log10 of molar EC50, mean ± SEM): > -5.00 M; Log IC50 ([6]; antagonist mode, ERα/3xERE, in the presence of 1 nM E2, log10 of molar IC50, mean ± SEM): > -5.00 M; Log EC50 ([7]; agonist mode, ERα^G420C-LBD/9xGal4UAS, 20 h, log10 of molar EC50, mean ± SEM): > -5.00 M; Log IC50 ([7]; antagonist mode, ERα^G420C-LBD/9xGal4UAS, in the presence of 20 nM E2, log10 of molar IC50, mean ± SEM): > -5.00 M; activity profile in words ([4]; MR-LBD expressing reporter cell line, agonist and antagonist mode): only weakly and partially activated; also recorded: pronounced full antagonist effect |
| C[C@]12C[C@H](O)[C@H]3[C@@H](CCC4=CC(=O)CC[C@@]43C)[C@@H]1CC[C@@H]2C(=O)CO [Corticosterone, corticosterone] |  |  |  |  | > 10 | > 10 | > 10 | > 10 | 0.0269 | > 10 | 0.0724 | 0.0263 |  |
| C#C[C@]1(O)CC[C@H]2[C@@H]3CCC4=Cc5oncc5C[C@]4(C)[C@H]3CC[C@@]21C [Danazol, danazol] |  |  |  |  | 4.37 | > 10 | > 10 | > 10 | > 10 | 0.692 | 0.0912 | > 10000 |  |
| O=c1c(-c2ccc(O)cc2)coc2cc(O)cc(O)c12 [Genistein, genistein] |  |  |  |  |  |  |  |  |  |  |  |  | EC50 [3]: > 10 µM; EC50 [4]: > 10000 nM; EC50 [5]: > 10 µM; IC50 [5]: > 10 µM |
| C[C@]12CC[C@@H]3c4ccc(O)cc4C[C@@H](CCCCCCCCC[S+]([O-])CCCC(F)(F)C(F)(F)F)[C@H]3[C@@H]1CC[C@@H]2O (some centres unmarked) [ICI 182.780] | > -5.00 | > -5.00 | > -5.00 | > -5.00 |  |  |  |  |  |  |  |  | Log EC50 [3]: > -5.00 M; Log IC50 [3]: > -5.00 M |
| CCCc1c(-c2ccc(O)cc2)nn(-c2ccc(O)cc2)c1-c1ccc(O)cc1 [PPT, propyl pyrazole triol] |  |  |  |  | 0.0017 | 0.0115 | > 10 | > 10 | > 10 | > 10 | 4.27 | > 10000 |  |
| C[C@]12C=CC(=O)C=C1CC[C@H]1[C@@H]3C[C@@H](O)[C@](O)(C(=O)CO)[C@@]3(C)C[C@H](O)[C@@]12F [Triamcinolone, triamcinolone] |  |  |  |  | > 10 | > 10 |  |  | 0.0129 | > 10 | 0.0589 | 75.9 | luciferase activity in ERα reporter cell lines [6]: did not find any sign of luciferase activity |
